Laboratory results taken from article PMC2628638, “Catalytic inhibition of topoisomerase II by a novel rationally designed ATP-competitive purine analogue” (BMC Chemical Biology, 2009).

Key:
[1] = tested on: HL-60 cells; test: Proliferation assay over 72 hours; type: cell-based; conditions: Homo sapiens, read-out: half-maximal growth inhibitory concentration (GI50)
[2] = molecular target: topoisomerase II alpha (Homo sapiens, UniProt P11388); test: DNA-dependent ATPase assay (malachite green); type: biochemical; design: screened in an ATPase assay using purified full length tagged human topoisomerase II alpha; made in house; host or cells: Sf21 insect cells, baculovirus (pFastBac1)
Experimental: DNA-dependent ATP hydrolysis of human topoisomerase II α was monitored by measuring the production of inorganic phosphate using acidic molybdate and malachite green. Specific ATPase activity of every batch was tested in a time-course to determine optimal incubation times and enzyme concentrations within the linear range of the assay. Reactions thus contained 10 – 40 nM topoisomerase II (dimer concentration) in reaction buffer (10 mM Tris HCl pH 7.5, 175 mM KCl, 0.1 mM EDTA, 5 mM MgCl2, 2 mM DTT, 2.5% glycerol and 1.7 nM supercoiled pUC18). The specific activity of the human topoisomerase II α enzyme measured in the ATPase assay was 0.24 μmol PO4·min^-1·mg^-1. […] Compounds at the indicated concentrations were added as serial dilutions prepared in DMSO and preincubated for 10 minutes at 37°C on an orbital shaker. Reactions were started by the addition of 400 μM ATP (Sigma, catalog number A2383) and allowed to proceed for 30 minutes. Reactions were terminated by the addition of 200 μl malachite green reagent and the OD was read immediately at 630 nm on a SpectraMax Plus microtiter plate reader using SoftMax Pro software (Molecular Devices). For kinetic analysis, reactions were carried out in duplicate as described above either in the presence of vehicle (DMSO) or QAP 1. Following a preincubation for 5 minutes, ATP was added at the indicated concentrations to start the reactions, which were allowed to proceed for 17 minutes before stopping and reading as above. From these values the OD values obtained at each respective ATP concentration without enzyme were subtracted for background correction. […] A compromise was found by carrying out the competition experiments with a single concentration of the inhibitor that gave a good inhibition of enzyme activity while keeping a measurable signal. The equations used to fit these experiments are: […]
Each competition experiment was fitted (Grafit version 5.04 – Erithacus Software) with these 3 equations and the models that gave unrealistic inhibition constants (above 10 mM) and/or large standard errors (similar to the value of the fitted parameter) were rejected. Then, the F-test was carried out to identify the best fitting model. An alternative method was used to determine the mode of action of the inhibitor. Dose-response experiments were carried out at different ATP concentrations and the corresponding IC50s determined. According to the Cheng-Prusoff equation for linear competitive inhibition: […]
The IC50 of a competitive inhibitive inhibitor should increase in a linear fashion with the concentration of ATP. The measured IC50s were then plotted in function of the ATP concentrations and linear regression analyses were carried out. […] Mean Km and Vmax values were calculated from two independent experiments.

[3] = tested on: panel of serine/threonine/tyrosine protein kinases; test: Kinase selectivity profiling, standard panel of kinases; type: biochemical; conditions: in vitro, versus topoisomerase II
Source text: Based on homology structural models of the target, a purine scaffold was designed interactively using the Macromodel modeling software. The designed purine scaffold was subsequently used as a substructure query to search the Novartis compound collection. Around 50 molecules were retrieved in this manner and screened in an ATPase assay using purified full length tagged human topoisomerase II alpha. […] Subsequently, we carried out kinetic analysis with QAP 1 in order to corroborate the mode of action. […] The data were analyzed by non-linear regression analysis using the equations corresponding to competitive, uncompetitive, and mixed inhibition (see Methods) and a statistical analysis (F-test; p ≤ 0.05) was carried out to identify the best model. […] A linearized representation (Eady-Hofstee) of one of these experiments is depicted in Figure 1D. To confirm the mode of action of QAP 1, inhibition studies were also carried out in the presence of different concentration of the inhibitor at different ATP concentrations and the IC50 values were determined. […] Next, QAP 1 was tested against a panel of kinases in a radiometric assay. With the exception of subtle inhibition of the Ret and c-Src tyrosine kinases no effect of the compound was observed on other kinases in the panel, even at the highest concentration tested (Table 1). […]

[4] = tested on: HCC1937 BRCA1 mutant and HCC1937 BRCA1 reconstituted cells; test: Clonogenic growth assay (WST-1, colony counting); type: cell-based
Experimental: HCC1937 BRCA1 mutant and HCC1937 BRCA1 reconstituted breast ductal carcinoma cells were cultured in RPMI-1640 medium supplemented with 10% fetal calf serum, 2 mM L-glutamine, 1 mM sodium pyruvate, 4.5 g/l glucose and 1% (v/v) penicillin/streptomycin. Status of BRCA1 was corroborated by immunoprecipitation using 50 μg nuclear extracts and 1 μg mouse monoclonal antibody MS110 (ab16780, Abcam Inc., Cambridge, MA), which is directed towards the amino-terminus of the protein. Blots were probed with BRCA1 carboxy-terminal specific mouse monoclonal antibody D9 (sc-6954, Santa Cruz Biotechnologies, Santa Cruz, CA) and, following stripping, re-probed with antibody MS110. For assays, 5000 cells in 3 ml medium were seeded per well of 6 well plates in duplicates. The day after, vehicle (DMSO) or compounds were added. After one week medium was exchanged and vehicle or compounds were re-added for an additional two days. To assess proliferation the medium in each well was replaced with 1 ml medium containing 100 μl WST-1 reagent and incubation for 20 minutes at 37°C. Of each sample 110 μl supernatant were transferred into a 96 well plate and the OD was read at 450 nm (filter at 630 nm) on a SpectraMax Plus microtiter plate reader using SoftMax Pro software (Molecular Devices). For background correction, the blank value consisted of 100 μl medium containing 10 μl WST-1. Thereafter, colonies were stained by removing medium, washing cells once with PBS and incubation with 1 ml crystal violet solution for 30 minutes at room temperature. Cells were washed twice with PBS and colonies were counted using an Artec Counter (Model 880, Artec, Dyntatech Laboratories Inc.) with diameter cut-off set to 0.2 mm. Data were expressed as growth or colony numbers relative to vehicle control treatments (100%).

topoisomerase II alpha, sequence (P11388 whole entry): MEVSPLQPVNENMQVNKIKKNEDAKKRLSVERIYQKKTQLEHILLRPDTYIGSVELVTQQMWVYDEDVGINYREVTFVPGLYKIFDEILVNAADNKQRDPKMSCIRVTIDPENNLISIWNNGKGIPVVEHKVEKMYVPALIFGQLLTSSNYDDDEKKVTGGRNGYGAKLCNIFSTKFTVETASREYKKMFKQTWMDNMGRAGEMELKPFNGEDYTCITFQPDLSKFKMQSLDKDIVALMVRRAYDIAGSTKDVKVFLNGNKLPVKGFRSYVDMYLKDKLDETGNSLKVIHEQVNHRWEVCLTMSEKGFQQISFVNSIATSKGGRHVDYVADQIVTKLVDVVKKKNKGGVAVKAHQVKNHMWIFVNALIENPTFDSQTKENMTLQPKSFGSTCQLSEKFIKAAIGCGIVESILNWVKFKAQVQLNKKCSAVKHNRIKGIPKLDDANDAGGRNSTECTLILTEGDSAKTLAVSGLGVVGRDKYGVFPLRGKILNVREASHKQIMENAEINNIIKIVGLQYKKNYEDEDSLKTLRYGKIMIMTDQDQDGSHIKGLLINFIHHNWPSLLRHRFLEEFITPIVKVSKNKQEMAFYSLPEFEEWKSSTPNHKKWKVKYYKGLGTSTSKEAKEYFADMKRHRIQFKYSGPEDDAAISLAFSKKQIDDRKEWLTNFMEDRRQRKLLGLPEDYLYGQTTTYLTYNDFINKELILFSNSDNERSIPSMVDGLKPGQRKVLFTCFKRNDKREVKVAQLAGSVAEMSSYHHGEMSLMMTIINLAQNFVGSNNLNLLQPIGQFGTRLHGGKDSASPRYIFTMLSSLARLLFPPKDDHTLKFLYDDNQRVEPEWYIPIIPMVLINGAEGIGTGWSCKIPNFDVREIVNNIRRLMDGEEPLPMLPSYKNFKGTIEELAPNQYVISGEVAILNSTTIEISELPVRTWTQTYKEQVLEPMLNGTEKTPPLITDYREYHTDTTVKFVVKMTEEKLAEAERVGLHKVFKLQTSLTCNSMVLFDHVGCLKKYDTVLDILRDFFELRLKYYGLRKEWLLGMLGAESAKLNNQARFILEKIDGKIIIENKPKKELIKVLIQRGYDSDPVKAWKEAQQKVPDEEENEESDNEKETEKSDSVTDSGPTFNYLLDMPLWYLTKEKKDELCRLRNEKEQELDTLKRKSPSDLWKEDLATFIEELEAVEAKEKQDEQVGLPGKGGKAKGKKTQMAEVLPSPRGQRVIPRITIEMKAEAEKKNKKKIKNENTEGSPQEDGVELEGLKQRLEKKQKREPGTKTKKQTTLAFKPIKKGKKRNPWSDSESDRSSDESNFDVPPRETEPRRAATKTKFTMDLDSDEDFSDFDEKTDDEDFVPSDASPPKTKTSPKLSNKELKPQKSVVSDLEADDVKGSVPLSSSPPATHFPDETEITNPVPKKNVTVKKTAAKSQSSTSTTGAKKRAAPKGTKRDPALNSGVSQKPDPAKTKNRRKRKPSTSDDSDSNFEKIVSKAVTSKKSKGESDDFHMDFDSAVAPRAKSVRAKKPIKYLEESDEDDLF

GI50 [1]: 8 µM
IC50 ([2]; full length tagged human topoisomerase II alpha, 400 μM ATP): 128 ± 21 nM
mode of inhibition (kinetic analysis, F-test) ([2]; non-linear regression, competitive vs uncompetitive vs mixed models): ATP-competitive inhibitor
selectivity over a standard panel of kinases [3]: greater than 10 fold
Compound: CCc1nc2nc(Nc3ccc4nc(OCCN5CCOCC5)ccc4c3)nc(NC(C)(C)C)c2[nH]1 [QAP 1]
colony formation of BRCA1 mutant cells ([4]; 5 μM, 9 days): striking suppression
sensitivity of BRCA1 mutant versus BRCA1 reconstituted HCC1937 cells ([4]; continuous treatment for 9 days, WST-1 and colony numbers): differential antiproliferative effect
